Where only a bound is given, the exact number is not on record here.

Data set [1] addresses T1, Human SST5 somatostatin receptor (SSTR5) (Homo sapiens, UniProt P35346).
T1 construct: expressed in transfected cells; host or cells: HEK-293 EBNA
The experiment in a line: Filter plate assay for SST5 receptor, displacement of [125I]SST-14. It counts as binding. In a few lines: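 HEK-293 EBNA membranes expressing human SST5 (5.5 μg) incubated 60 min at 25 °C with 4 nM [125I]SST-14 and compound in pH 7.5 Tris/EGTA/MgCl2/sucrose buffer. Bound radioactivity collected on PEI-coated glass fiber filters and counted; triplicate 1:5 dilution series from 125 μM, non-specific binding with excess cold ligand.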
A general note: In a radioligand displacement assay an active substance lowers the binding of a labelled ligand.

For a further data set, the system named is HUVEC tube formation. As to the kind of experiment: Matrigel tube formation assay. It counts as cell-based, human. Conditions: Homo sapiens, 22 h. As to the method:
HUVEC (Clonetics) were plated in 96 well plates in EGM-2 media (Clonetics) at 2.5 to 3×10^4 cells per well. Cells of less than 6 passages were used in all studies. Wells were precoated with 50 μL growth factor containing Matrigel (Becton Dickinson). HUVEC were allowed to form tubes by incubation at 37° C. in 5% CO2 for 22 hrs. In test wells compound was added in the desired concentration. Photographic images of the wells ×4 magnification were used to determine size of the tubes, length of tubes and number of junctions using image analysis software.

The next data set deals with T2, SSTR-1 (Homo sapiens, UniProt P30872).
T2 construct: expressed in transfected cells
The experiment in a line: Radioligand binding screen against somatostatin subtype SSTR-1. Conditions: concentration required to displace 50% of the competitive radioligand; read-out: IC50 SSTR1. On the procedure: (§1) Receptor membrane preparations containing the desired cloned receptor (for example cloned human somatostatin receptor subtype 5, SSTR5) and radio-labeled ligand (for example 3-[^125I]iodotyrosyl^11 Somatostatin-14)) were diluted at the concentration required for testing and according to the specific parameters associated with the selected receptor-ligand combination, including receptor Bmax, ligand Kd and any other parameters necessary to optimize the experimental conditions. When tested for competition activity to the reference ligand, “compound 1” was mixed with membrane suspension and the radiolabeled reference ligand (with or without an excess of cold ligand to the receptor for determination of non-specific binding) and incubated at the temperature required by internal standard operating procedures. Following incubation, the binding reaction was stopped by the addition of ice-cold washing buffer and filtered on appropriate filters, which are then counted. Data analysis and curve-fitting was performed with XLfit (IDBS).
(§2) 10 mM solutions of test compounds in 100% DMSO were prepared. ˜160 μl was used for each dilution (20 μl/well in triplicate).
(§3) A 1.25 mM assay stock was prepared by making a 1:8 dilution of the 10 mM solution. (To 30 μL of the 10 mM solution was added 210 μL milli-Q H2O. A 1:5 dilution series in milli-Q H2O was then prepared.
(§4) In primary screening experiments compounds were tested in duplicate for a particular concentration.

The next data set concerns Jurkat cell line. The experiment in a line: Cell proliferation assay (CellTiter 96 AQueous One) as indicator of toxicity, Jurkat. Type of data set: cell-based. The note with it: 100 μM. On the procedure:
(§5) A simple cell proliferation assay was used to determine the in vitro cytotoxicity of “compound 1.” Selected cell lines were cultured according to their specific requirements. The optimal cell density required for each cell line was determined. All compounds were tested at a single concentration in triplicate. Cell viability was determined using the CellTiter 96® AQueous One reagent from Promega Corporation.
(§6) Assays are performed by adding the test compound to the cells in culture and incubating the cells for a fixed period. The number of viable cells remaining after the incubation period is determined by adding a small amount of the CellTiter 96® AQueous One Solution Reagent directly to culture wells, incubating for 1-4 hours and then recording absorbance at 490 nm with a 96 well plate reader.
(§7) Controls in the assay include untreated cells, wells without cells and cells treated with know cytotoxic agents. Data is presented as % inhibition of cell proliferation.

Another data set concerns the target T3, SSTR-3 (Homo sapiens, UniProt P32745).
T3 construct: expressed in transfected cells
The experiment in a line: Radioligand binding screen against somatostatin subtype SSTR-3. As to the method:
as §1, §2, §3, §4

The subject of a further data set is 3T3 cell line. The experiment in a line: Cell proliferation assay (CellTiter 96 AQueous One) as indicator of toxicity, 3T3. Type of data set: cell-based. The note with it: 3T3, 100 μM. As to the method:
as §5, §6, §7

A short description of data set [2]: Solubility of salts of compound 1. The note with it: Water, overnight; listed as Free Base (Compound 1). Type of data set: physicochemical.
Another data set can be described thus: in vitro. Conditions: human, Caco-2. As to the method: The Caco-2 assay was performed according to the procedure described in the following cited article [Caco-2 Monolayers in Experimental and Theoretical Predictions of Drug Transport, Artursson P, Palm K, Luthman K., Adv. Drug Deliv. Rev., 2001, 46, 27-43].
The mark [3] stands for this setting: normalized IC50: lowest IC50 for a compound = 1.

T3 sequence (P32745 whole entry): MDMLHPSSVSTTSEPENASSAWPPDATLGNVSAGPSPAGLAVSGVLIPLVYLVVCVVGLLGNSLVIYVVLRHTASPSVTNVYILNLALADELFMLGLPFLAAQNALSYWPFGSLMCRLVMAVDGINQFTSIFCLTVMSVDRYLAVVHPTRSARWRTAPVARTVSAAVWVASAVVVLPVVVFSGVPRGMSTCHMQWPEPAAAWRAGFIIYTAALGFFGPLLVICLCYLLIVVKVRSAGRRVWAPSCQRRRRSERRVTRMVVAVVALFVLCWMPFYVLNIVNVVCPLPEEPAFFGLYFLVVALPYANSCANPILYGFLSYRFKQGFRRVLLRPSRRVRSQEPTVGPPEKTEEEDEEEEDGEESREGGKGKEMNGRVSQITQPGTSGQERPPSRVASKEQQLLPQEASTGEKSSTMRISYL
T1 sequence (P35346 whole entry): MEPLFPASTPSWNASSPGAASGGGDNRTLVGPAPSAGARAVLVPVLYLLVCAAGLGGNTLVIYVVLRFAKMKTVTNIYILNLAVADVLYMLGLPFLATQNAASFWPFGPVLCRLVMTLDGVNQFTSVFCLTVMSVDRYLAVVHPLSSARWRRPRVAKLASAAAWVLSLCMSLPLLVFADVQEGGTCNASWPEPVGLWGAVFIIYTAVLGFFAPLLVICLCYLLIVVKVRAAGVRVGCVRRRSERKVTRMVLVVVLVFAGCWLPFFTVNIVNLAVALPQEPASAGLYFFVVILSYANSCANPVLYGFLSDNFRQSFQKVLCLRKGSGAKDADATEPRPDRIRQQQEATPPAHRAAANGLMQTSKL
T2 sequence (P30872 whole entry, species assumed): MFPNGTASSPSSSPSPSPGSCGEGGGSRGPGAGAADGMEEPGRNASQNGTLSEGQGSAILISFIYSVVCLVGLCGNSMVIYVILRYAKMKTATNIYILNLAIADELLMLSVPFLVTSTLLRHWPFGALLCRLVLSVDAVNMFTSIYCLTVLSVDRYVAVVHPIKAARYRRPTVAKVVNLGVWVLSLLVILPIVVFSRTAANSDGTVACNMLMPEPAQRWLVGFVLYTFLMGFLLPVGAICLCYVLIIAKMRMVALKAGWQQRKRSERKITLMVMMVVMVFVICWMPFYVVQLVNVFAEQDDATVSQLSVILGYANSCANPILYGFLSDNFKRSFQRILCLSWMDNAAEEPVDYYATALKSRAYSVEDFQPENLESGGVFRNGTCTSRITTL

By IC50 is commonly meant the midpoint of a concentration-inhibition curve. Usually EC50 stands for the concentration that produces a half-maximal response. The term Papp denotes a coefficient for how fast a substance crosses the barrier. For the molecule `COC[C@H]1O[C@H](OCCc2ccccc2)[C@H](NC(=O)CCCN)[C@@H](OCc2ccc3ccccc3c2)[C@@H]1O` [Compound 1], the concentration for half-maximal inhibition (IC50) was 0.322 µM in data set [1] (concentration required to displace 50% of the competitive radioligand, read-out: IC50 SSTR5); more than 12.5 µM on SSTR-1; 8.5 µM on SSTR-3 (concentration required to displace 50% of the competitive radioligand, read-out: IC50 SSTR3). For the same molecule, in data set [1] (setting [3]), the “selectivity SSTR5” value amounted to 1. Besides, the “Hillslope SSTR5” value in data set [1] (slope of binding curve) came to 0.71. For the same molecule, in the data set with HUVEC tube formation, the midpoint of the response, the EC50, lay at 250 µM. Moreover, the “Inhibition of cell proliferation” value in the data set with Jurkat cell line and in the data set on 3T3 cell line was “no inhibitory effect” throughout. The “selectivity SSTR3” value at SSTR-3 (setting [3]) stood at 26.4. Moreover, the “Hillslope SSTR3” value on SSTR-3 (slope of binding curve) worked out at 1.04. Besides, the “Solubility in Water” value in data set [2] is more than 200 µg/mL. Further, in the data set “in vitro”, the Papp worked out at 1.04 ×10⁻⁶ cm/s.
